Data taken from article PMC4596862, “Stereochemical Control in the Still-Wittig Rearrangement Synthesis of Cyclohexyl (Z)-Alkene Inhibitors of Pin1” (PLoS ONE, 2015).

What follows are molecules tested against Pin1 (Homo sapiens, UniProt Q13526) (assay: protease-coupled PPIase assay (pNA release at […] nm, […]°C)).
Type: biochemical

Sequence of Pin1 (Q13526 whole entry): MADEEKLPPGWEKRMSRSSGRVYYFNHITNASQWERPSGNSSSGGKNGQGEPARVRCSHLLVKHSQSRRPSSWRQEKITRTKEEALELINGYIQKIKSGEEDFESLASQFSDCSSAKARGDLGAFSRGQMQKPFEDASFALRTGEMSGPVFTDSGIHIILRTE

Row | Compound | IC50 [µM]
1 | CC(=O)N[C@@H](/C=C1/CCCC[C@@H]1C(=O)NCCc1ccc2ccccc2c1)COP(=O)(O)O [(2S,5S)-1, (2S,5S)-Ac–pSer–Ψ[(Z)CH = C]–pipecolyl(Pip)–2-(2-naphthyl)ethylamine 1] | 140 ± 20
2 | CC(=O)N[C@H](/C=C1/CCCC[C@@H]1C(=O)NCCc1ccc2ccccc2c1)COP(=O)(O)O [(2R,5S)-1, Ac–L-pSer–Ψ[(Z)CH = C]-D-Pip–NEA] | 52 ± 4
3 | CC(=O)N[C@@H](/C=C1/CCCC[C@H]1C(=O)NCCc1ccc2ccccc2c1)COP(=O)(O)O [(2S,5R)-1, Ac–D-pSer–Ψ[(Z)CH = C]–L-Pip–2-(2-naphthyl)ethylamine (NEA)] | 85 ± 10
